Data published in US20260209213A1, “SELECTIVE ANGIOTENSIN II COMPOUNDS” (VICORE PHARMA AB, priority 2023, published 2026).
Where two headings read alike, the source gives them in different places.

Legend:
Format in all cases: in vitro ADME
[1] = Metabolic stability in pooled human liver microsomes; details: pooled human liver microsomes 0.5 mg/mL, 1 μM compound, 37° C.
Procedure: Pooled human liver microsomes in PBS at a concentration of 0.5 mg/mL was incubated with or without 1 mM NADPH for 70 min at 37° C. Test compound was added after 10 minutes to a final concentration of 1 μM. Samples were withdrawn at 0, 5, 15 and 60 minutes and added to test tubes containing acetonitrile, to stop the reaction, and with terfenadine, used as internal standard. After centrifugation at 10 000×g for 5 minutes the supernatant was diluted 1:1 with 1% formic acid. Samples were separated on a reverse phase column and detected by triple quadrupole MSMS (Agilant model 6540). The concentration of the parent compound at the different time points was measured with an external standard curve using terfenadine as internal standard and the initial metabolic rate in the presence or absence of NADPH calculated.

CYP1A2 = target: T1, CYP1A2 (Homo sapiens, UniProt P05177); test: in vitro; details: human liver microsomes, substrate phenacetin, read-out: CYP1A2 Inh %
T1 construct: using isoform-specific substrates incubated with human liver microsomes; tissue Eurofins protocol ITEMG232; host or cells: human liver microsomes
T1 sequence (P05177 whole entry, canonical isoform): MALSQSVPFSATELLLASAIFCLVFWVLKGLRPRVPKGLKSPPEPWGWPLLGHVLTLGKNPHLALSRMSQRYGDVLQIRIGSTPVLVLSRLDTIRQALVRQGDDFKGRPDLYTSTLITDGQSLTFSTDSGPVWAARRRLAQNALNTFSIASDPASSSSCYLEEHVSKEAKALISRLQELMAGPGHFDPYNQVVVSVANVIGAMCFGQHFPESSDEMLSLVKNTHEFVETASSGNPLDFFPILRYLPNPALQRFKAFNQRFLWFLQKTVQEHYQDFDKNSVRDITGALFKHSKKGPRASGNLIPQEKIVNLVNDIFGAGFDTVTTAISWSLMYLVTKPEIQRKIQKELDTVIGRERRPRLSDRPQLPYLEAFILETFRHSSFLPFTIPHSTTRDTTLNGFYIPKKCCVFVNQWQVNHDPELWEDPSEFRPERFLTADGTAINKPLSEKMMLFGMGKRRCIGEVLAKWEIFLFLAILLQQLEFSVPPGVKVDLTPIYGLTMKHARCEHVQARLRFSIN
Procedure: (§1) The following substrates were used; CYP1 Å phenacetin, […] bupropion, CYP2C8 paclitaxel and amodiaquine, CYP2C9 diclofenac, CYP2C19 omeprazole, CYP2D6 dextromethorphan, CYP3 Å midazolam and testosterone.
(§2) At the end of the incubation, the formation of metabolite was monitored by HPLC-MS/MS as the peak area response.

CYP2B6 = target: T2, CYP2B6 (Homo sapiens, UniProt P20813); test: CYP inhibition in human liver microsomes; details: probe bupropion, substrate bupropion, read-out: CYP2B6 Inh %
T2 construct: using isoform-specific substrates incubated with human liver microsomes; tissue Eurofins protocol ITEMG232; host or cells: human liver microsomes
T2 sequence (P20813 1-491): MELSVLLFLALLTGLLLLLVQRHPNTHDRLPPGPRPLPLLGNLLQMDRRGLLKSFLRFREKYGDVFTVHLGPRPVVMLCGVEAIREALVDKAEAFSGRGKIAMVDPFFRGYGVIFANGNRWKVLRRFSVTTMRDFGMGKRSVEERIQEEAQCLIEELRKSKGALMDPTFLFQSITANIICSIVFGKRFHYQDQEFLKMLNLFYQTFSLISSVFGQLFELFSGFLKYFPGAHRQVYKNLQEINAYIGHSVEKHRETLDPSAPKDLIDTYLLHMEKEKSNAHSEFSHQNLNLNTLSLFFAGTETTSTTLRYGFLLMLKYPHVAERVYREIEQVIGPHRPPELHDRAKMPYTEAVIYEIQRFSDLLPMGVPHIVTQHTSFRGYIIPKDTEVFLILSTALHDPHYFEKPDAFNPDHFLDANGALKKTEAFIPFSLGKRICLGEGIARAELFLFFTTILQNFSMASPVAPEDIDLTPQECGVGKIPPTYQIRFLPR
Procedure: as §1, §2

CYP2C19 = target: T3, CYP2C19 (Homo sapiens, UniProt P33261); test: CYP inhibition in human liver microsomes; details: probe omeprazole, substrate omeprazole, read-out: CYP2C19 Inh %
T3 construct: using isoform-specific substrates incubated with human liver microsomes; tissue Eurofins protocol ITEMG232; host or cells: human liver microsomes
T3 sequence (P33261 whole entry, canonical isoform): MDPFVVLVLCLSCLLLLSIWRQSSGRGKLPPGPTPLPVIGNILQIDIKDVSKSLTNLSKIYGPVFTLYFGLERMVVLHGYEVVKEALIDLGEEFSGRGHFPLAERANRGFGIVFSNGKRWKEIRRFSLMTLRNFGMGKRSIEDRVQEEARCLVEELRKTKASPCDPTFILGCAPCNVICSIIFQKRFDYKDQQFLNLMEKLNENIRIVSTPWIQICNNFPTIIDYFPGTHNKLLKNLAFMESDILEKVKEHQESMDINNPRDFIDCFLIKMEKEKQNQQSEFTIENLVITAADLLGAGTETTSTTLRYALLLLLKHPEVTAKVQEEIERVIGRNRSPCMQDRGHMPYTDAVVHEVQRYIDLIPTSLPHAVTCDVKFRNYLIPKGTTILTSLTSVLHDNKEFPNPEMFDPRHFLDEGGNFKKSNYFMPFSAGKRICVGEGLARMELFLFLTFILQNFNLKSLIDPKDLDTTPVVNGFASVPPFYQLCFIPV
Procedure: as §1, §2

CYP2C8 = target: T4, CYP2C8 (Homo sapiens, UniProt P10632); test: CYP inhibition in human liver microsomes; details: probe paclitaxel and amodiaquine, substrates paclitaxel and amodiaquine, read-out: CYP2C8 Inh %
T4 construct: using isoform-specific substrates incubated with human liver microsomes; tissue Eurofins protocol ITEMG232; host or cells: human liver microsomes
T4 sequence (P10632 1-490): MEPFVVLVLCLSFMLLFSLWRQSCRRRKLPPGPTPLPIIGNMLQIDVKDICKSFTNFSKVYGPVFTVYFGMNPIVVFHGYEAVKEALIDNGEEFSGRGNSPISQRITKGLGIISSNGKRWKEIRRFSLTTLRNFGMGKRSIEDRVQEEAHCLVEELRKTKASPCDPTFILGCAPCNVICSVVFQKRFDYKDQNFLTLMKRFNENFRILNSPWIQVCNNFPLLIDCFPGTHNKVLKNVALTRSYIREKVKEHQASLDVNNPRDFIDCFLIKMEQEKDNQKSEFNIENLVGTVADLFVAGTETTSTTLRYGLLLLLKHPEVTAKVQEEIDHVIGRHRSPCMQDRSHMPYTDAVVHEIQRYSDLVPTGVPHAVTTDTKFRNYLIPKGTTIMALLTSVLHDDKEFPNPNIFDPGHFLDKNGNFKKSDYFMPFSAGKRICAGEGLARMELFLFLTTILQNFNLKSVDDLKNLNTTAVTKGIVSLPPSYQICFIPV
Procedure: as §1, §2

CYP2D6 = target: T5, CYP2D6 (Homo sapiens, UniProt P10635); test: CYP inhibition in human liver microsomes; details: probe dextromethorphan, substrate dextromethorphan, read-out: CYP2D6 Inh %
T5 construct: tissue Eurofins protocol ITEMG232; host or cells: human liver microsomes
T5 sequence (P10635 whole entry): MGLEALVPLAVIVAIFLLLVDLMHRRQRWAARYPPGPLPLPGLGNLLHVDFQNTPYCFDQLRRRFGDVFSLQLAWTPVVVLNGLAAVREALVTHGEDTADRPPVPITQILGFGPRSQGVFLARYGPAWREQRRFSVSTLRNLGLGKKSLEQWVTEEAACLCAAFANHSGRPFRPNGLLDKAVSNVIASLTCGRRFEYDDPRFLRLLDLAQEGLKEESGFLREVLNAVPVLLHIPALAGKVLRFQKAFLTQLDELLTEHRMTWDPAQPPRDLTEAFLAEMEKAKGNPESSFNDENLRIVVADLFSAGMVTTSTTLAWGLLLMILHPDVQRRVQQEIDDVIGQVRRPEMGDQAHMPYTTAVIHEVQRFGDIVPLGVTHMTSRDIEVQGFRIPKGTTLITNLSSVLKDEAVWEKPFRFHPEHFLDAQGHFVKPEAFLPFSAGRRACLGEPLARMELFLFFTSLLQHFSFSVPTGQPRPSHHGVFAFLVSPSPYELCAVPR
Procedure: as §1, §2

CYP3A4&5 = test: CYP inhibition in human liver microsomes (testosterone); details: probe testosterone, substrate testosterone, read-out: CYP3A4&5 testosterone Inh %
Procedure: as §1, §2

CYP2C9 [2] = target: T6, CYP2C9 (Homo sapiens, UniProt P11712); test: CYP inhibition in human liver microsomes; set-up: using isoform-specific substrates incubated with human liver microsomes; tissue Eurofins protocol ITEMG232; host or cells: human liver microsomes; details: probe diclofenac, substrate diclofenac, read-out: CYP2C9 Inh %
T6 sequence (P11712 whole entry, canonical isoform): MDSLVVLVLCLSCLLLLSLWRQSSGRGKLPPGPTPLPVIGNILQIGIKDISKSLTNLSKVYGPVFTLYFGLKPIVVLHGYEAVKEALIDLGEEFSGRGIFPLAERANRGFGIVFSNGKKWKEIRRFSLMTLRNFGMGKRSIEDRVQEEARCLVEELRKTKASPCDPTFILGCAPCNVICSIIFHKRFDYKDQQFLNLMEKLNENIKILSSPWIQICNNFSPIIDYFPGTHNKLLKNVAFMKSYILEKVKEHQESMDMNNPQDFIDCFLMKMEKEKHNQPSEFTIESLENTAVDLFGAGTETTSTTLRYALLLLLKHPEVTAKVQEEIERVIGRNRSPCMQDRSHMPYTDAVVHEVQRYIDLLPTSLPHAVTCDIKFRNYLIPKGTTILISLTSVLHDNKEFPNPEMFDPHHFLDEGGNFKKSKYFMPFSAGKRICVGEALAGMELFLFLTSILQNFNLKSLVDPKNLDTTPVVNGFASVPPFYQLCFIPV
Procedure: as §1, §2

CYP3A4 [3] = target: T7, CYP3A4 (Homo sapiens, UniProt P08684); test: CYP inhibition in human liver microsomes (midazolam); set-up: using isoform-specific substrates incubated with human liver microsomes; tissue Eurofins protocol ITEMG232; host or cells: human liver microsomes; details: probe midazolam, substrate midazolam, read-out: CYP3A4 midazolam Inh %
T7 sequence (P08684 whole entry, canonical isoform): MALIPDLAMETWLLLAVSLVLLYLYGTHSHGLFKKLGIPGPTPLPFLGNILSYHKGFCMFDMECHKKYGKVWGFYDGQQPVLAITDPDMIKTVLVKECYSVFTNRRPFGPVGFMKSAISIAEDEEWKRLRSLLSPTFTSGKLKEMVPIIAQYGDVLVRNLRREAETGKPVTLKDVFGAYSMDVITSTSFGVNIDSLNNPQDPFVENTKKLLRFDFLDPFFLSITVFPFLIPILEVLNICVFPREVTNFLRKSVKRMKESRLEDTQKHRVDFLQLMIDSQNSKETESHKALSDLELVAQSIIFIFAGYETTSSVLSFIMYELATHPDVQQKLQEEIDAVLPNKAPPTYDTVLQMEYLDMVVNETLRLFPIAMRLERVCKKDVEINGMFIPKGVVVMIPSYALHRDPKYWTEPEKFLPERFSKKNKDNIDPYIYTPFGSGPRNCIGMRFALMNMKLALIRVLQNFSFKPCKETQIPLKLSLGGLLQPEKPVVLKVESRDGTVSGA
Procedure: as §1, §2

CYP2C9 [4] = target: T6, CYP2C9; test: CYP inhibition found during development of C21
CYP3A4 [5] = target: T7, CYP3A4; test: CYP inhibition found during development of C21
[6] = Metabolic hydrolysis found during development of C21
[7] = with 1 mM NADPH, read-out: T1/2, + NaDPH
[8] = without NADPH, read-out: T1/2, no NaDPH

Compound: Cc1nccn1Cc1ccc(-c2cc(CC(C)C)sc2S(=O)(=O)Nc2ccccn2)cc1Cl [Example 2, 3-[3-Chloro-4-[(2-methylimidazol-1-yl)methyl]phenyl]-5-isobutyl-N-(2-pyridyl)thiophene-2-sulfonamide]
- half-life at 1 μM [1, 7]: 1 h
- half-life at 1 μM [1, 8]: > 1 h

Compound: Cc1nccn1Cc1ccc(-c2cc(CC(C)C)sc2S(=O)(=O)Nc2ncccn2)cc1Cl [Example 1, 3-[3-Chloro-4-[(2-methylimidazol-1-yl)methyl]phenyl]-5-isobutyl-N-pyrimidin-2-yl-thiophene-2-sulfonamide]
- half-life at 1 μM [1, 7]: > 1 h
- half-life at 1 μM [1, 8]: > 1 h
- inhibition at 10 µM (CYP1A2): 12.3%
- inhibition at 10 µM (CYP2B6): 22.4%
- inhibition at 10 µM (CYP2C19): 72.7%
- inhibition at 10 µM (CYP2C8): 33.9%
- inhibition at 10 µM (CYP2D6): 28.3%
- inhibition at 10 µM (CYP3A4&5): 40.1%
- inhibition at 10 µM (CYP2C9 [2]): 49.4%
- inhibition at 10 µM (CYP3A4 [3]): 40.1%

Compound: Cc1cc(-c2cc(CC(C)C)sc2S(=O)(=O)Nc2ccccn2)ccc1Cn1ccnc1C [Example 3, 5-Isobutyl-3-[3-methyl-4-[(2-methylimidazol-1-yl)methyl]phenyl]-N-(2-pyridyl)thiophene-2-sulfonamide]
- half-life at 1 μM [1, 7]: 0.883 h
- half-life at 1 μM [1, 8]: > 1 h

Compound: CCCCOC(=O)NS(=O)(=O)c1sc(CC(C)C)cc1-c1ccc(Cn2ccnc2)cc1 [Example C21, N-butyloxycarbonyl-3-(4-imidazol-1-ylmethylphenyl)-5-isobutylthiophene-2-sulfon-amide]
- inhibition at 10 µM (CYP3A4&5): 94%
- inhibition of CYP 2C9 (in words) (CYP2C9 [4]): potent inhibitor
- inhibition of CYP 3A4 (in words) (CYP3A4 [5]): potent inhibitor
- metabolic hydrolysis (in words) [6]: rapidly hydrolysed to an inactive sulfonamide metabolite
